PubChem BioAssay (NCI)
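Five compound concentrations were applied to cells in 96-well plates for 48 hours; endpoints were derived by simple linear interpolation of the resulting dose-response curve. TGI marks complete inhibition of growth.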

Tested on: P388 leukemia
Experiment: NCI tumour cell line growth inhibition, 48 h

Row | SMILES | TGI
1 | O=c1oc2cc(O)ccc2c2oc3cc(O)ccc3c12 | > 125 µM
2 | O=C1CCCCN1 | > 707 µM
